Results: ChEMBL document CHEMBL6127034, “Design, synthesis and biological evaluation of a novel PAK1 degrader for the treatment of triple negative breast cancer” (Bioorg Med Chem, 2024)
Calls of active or inactive are those of the source. The rule behind the calls is not given here.

How the values were obtained:
[1] = molecular target: T1, von Hippel-Lindau disease tumor suppressor/Serine/threonine-protein kinase PAK 1 (Homo sapiens, UniProt Q13153+P40337); assay: PROTAC activity at VHL/PAK1 in human MDA-MB-231 cells assessed as induction of protein degradation at 2.5 uM incubated for 48 hrs by Western blot analysis relative to control; assay type: cell-based
[2] = test system: MDA-MB-231; assay: Antiproliferative activity against human MDA-MB-231 cells incubated for 48 hrs by MTT assay; assay type: functional, cell-based; conditions: MDA-MB-231, 48 h
[3] = molecular target: T1, von Hippel-Lindau disease tumor suppressor/Serine/threonine-protein kinase PAK 1; assay: PROTAC activity at VHL/PAK1 in human MDA-MB-231 cells assessed as induction of protein degradation at 0.1 uM incubated for 48 hrs by Western blot analysis relative to control; assay type: cell-based
[4] = molecular target: T1, von Hippel-Lindau disease tumor suppressor/Serine/threonine-protein kinase PAK 1; assay: PROTAC activity at VHL/PAK1 in human MDA-MB-231 cells assessed as fold change in protein expression at 2.5 uM incubated for 48 hrs by Western blot analysis relative to control; assay type: cell-based
[5] = molecular target: T2, Protein cereblon/Serine/threonine-protein kinase PAK 1 (Homo sapiens) (UniProt Q13153+Q96SW2); assay: PROTAC activity at CRBN/PAK1 in human MDA-MB-231 cells assessed as fold change in protein expression at 2.5 uM incubated for 48 hrs by Western blot analysis relative to control; assay type: cell-based
[6] = molecular target: T2, Protein cereblon/Serine/threonine-protein kinase PAK 1 (Homo sapiens); assay: PROTAC activity at CRBN/PAK1 in human MDA-MB-231 cells assessed as induction of protein degradation at 0.1 uM incubated for 48 hrs by Western blot analysis relative to control; assay type: cell-based
[7] = molecular target: T2, Protein cereblon/Serine/threonine-protein kinase PAK 1 (Homo sapiens); assay: PROTAC activity at CRBN/PAK1 in human MDA-MB-231 cells assessed as induction of protein degradation at 2.5 uM incubated for 48 hrs by Western blot analysis relative to control; assay type: cell-based
[8] = molecular target: Serine/threonine-protein kinase PAK 1 (Homo sapiens, UniProt Q13153); assay: Inhibition of PAK1 (unknown origin)
[9] = test system: MDA-MB-231; assay: Antiproliferative activity against human MDA-MB-231 cells; assay type: functional, cell-based
[10] = test system: MDA-MB-231; assay: Induction of apoptosis in human MDA-MB-231 cells assessed as early apoptotic cells at 2.5 uM incubated for 12 to 48 hrs by Annexin V-FITC/PI staining based flow cytometry (reference value: 1.12 %); assay type: functional; conditions: time 12-48 hrs
[11] = test system: MDA-MB-231; assay: Inhibition of cell proliferation of human MDA-MB-231 cells assessed as decrease in Ki-67 expression at 2.5 uM incubated for 24 hrs by immunofluorescence based analysis; assay type: functional
[12] = test system: MDA-MB-231; assay: Inhibition of cell proliferation of human MDA-MB-231 cells at 2.5 uM by EdU staining based analysis; assay type: functional
[13] = test system: MDA-MB-231; assay: Induction of apoptosis in human MDA-MB-231 cells assessed as viable cells at 2.5 uM incubated for 12 to 48 hrs by Annexin V-FITC/PI staining based flow cytometry (reference value: 97.0 %); assay type: functional; conditions: time 12-48 hrs, read-out: Activity
[14] = test system: MDA-MB-231; assay: Induction of apoptosis in human MDA-MB-231 cells assessed as necrotic cells at 2.5 uM incubated for 12 to 48 hrs by Annexin V-FITC/PI staining based flow cytometry (reference value: 0.43 %); assay type: functional; conditions: time 12-48 hrs
[15] = test system: MDA-MB-231; assay: Inhibition of cell proliferation of human MDA-MB-231 cells at 2.5 uM by crystal violet staining based colony formation assay; assay type: functional
[16] = test system: MDA-MB-231; assay: Inhibition of cell migration in human MDA-MB-231 cells at 2.5 uM incubated for 24 hrs by transwell assay; assay type: functional, cell-based
[17] = test system: MDA-MB-231; assay: Inhibition of cell migration in human MDA-MB-231 cells at 2.5 uM incubated upto 48 hrs by wound healing assay; assay type: functional, cell-based
[18] = test system: MDA-MB-231; assay: Induction of apoptosis in human MDA-MB-231 cells assessed as late apoptotic cells at 2.5 uM incubated for 12 to 48 hrs by Annexin V-FITC/PI staining based flow cytometry (reference value: 1.48 %); assay type: functional; conditions: time 12-48 hrs
[19] = test system: MDA-MB-231; assay: Inhibition of 3D-spherioid formation of human MDA-MB-231 cells at 2.5 uM by crystal violet staining based colony formation assay; assay type: functional, cell-based

T2 sequence (Q13153 whole entry, looked up): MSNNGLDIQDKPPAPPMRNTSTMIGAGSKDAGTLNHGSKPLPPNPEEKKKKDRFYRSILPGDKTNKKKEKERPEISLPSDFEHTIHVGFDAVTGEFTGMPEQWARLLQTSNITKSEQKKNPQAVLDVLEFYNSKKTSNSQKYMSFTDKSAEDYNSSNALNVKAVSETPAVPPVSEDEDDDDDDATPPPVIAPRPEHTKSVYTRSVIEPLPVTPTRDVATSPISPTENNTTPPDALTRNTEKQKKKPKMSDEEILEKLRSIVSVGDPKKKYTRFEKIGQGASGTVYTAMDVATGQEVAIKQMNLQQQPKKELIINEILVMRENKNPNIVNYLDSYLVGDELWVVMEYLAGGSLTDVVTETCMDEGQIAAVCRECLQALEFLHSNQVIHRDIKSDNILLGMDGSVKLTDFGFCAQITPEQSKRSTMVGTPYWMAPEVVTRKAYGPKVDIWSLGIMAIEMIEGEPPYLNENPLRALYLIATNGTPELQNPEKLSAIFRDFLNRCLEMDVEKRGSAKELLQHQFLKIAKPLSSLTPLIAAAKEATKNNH
T2 sequence (Q96SW2 whole entry, looked up): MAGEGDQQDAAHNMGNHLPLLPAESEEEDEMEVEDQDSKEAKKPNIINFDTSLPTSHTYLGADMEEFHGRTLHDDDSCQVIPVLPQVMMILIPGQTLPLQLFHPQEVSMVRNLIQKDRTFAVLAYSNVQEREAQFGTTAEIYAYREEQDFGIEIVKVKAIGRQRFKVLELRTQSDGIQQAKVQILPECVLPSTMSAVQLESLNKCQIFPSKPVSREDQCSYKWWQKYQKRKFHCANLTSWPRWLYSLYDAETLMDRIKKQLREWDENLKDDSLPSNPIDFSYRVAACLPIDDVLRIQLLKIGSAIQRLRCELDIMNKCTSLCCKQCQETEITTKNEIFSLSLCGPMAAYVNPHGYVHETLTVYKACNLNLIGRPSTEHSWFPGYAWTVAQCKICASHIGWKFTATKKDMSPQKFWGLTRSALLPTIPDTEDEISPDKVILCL
T1 sequence (Q13153 2-545 limits assumed): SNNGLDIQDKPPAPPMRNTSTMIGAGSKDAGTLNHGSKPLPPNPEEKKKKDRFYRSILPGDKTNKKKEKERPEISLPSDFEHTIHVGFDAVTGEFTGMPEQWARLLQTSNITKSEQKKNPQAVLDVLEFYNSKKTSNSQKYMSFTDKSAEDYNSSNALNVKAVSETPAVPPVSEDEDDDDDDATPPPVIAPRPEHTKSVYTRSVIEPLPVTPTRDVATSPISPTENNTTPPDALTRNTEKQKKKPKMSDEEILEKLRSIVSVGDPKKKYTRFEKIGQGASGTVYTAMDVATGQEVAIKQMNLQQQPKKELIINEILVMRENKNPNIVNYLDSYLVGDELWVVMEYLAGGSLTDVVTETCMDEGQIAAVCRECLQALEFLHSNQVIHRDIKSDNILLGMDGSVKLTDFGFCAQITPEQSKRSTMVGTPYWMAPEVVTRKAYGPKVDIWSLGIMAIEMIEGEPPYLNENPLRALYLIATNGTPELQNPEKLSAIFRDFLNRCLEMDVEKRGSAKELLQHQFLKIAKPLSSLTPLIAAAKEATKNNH
T1 sequence (P40337 whole entry partner): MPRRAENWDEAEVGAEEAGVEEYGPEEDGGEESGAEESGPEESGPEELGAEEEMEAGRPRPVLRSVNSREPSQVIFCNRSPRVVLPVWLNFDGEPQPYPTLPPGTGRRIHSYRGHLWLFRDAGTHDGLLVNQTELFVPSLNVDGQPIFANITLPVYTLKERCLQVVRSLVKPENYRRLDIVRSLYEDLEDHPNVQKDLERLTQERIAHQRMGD
Chain of Serine/threonine-protein kinase PAK 1 (Q13153 whole entry): as the sequence (Q13153 whole entry, looked up) above

| Compound | Activity [1] [%] | IC50 [2] [µM] | fold change (FC) [4] | fold change (FC) [5] | Activity [7] [%] | also measured |
| --- | --- | --- | --- | --- | --- | --- |
| O=C1CCC(N2C(=O)c3cccc(NCc4cn(CCCCCCn5c(=O)c(-c6ccc(Cl)cc6Cl)cc6cnc(NC7CC7)nc65)nn4)c3C2=O)C(=O)N1 (stereo not drawn) | – | 32.1 | – | 0.761 | 34.7 | – |
| CNc1ncc2cc(-c3ccc(Cl)cc3Cl)c(=O)n(CCOCCOCCn3cc(CNc4cccc5c4C(=O)N(C4CCC(=O)NC4=O)C5=O)nn3)c2n1 (stereo not drawn) | – | > 50 | – | 0.959 | 4.1 | – |
| CNc1ncc2cc(-c3ccc(Cl)cc3Cl)c(=O)[nH]c2n1 | – | 28.6 | – | – | – | IC50 [8]: 0.052 µM; IC50 [9]: 28.6 µM |
| O=C1CCC(N2C(=O)c3cccc(NCc4cn(CCOCCOCCn5c(=O)c(-c6ccc(Cl)cc6Cl)cc6cnc(NC7CC7)nc65)nn4)c3C2=O)C(=O)N1 (stereo not drawn) | – | > 50 | – | 1.05 | 23.9 | – |
| O=C1CCC(N2C(=O)c3cccc(NCc4cn(CCOCCOCCOCCn5c(=O)c(-c6ccc(Cl)cc6Cl)cc6cnc(NC7CC7)nc65)nn4)c3C2=O)C(=O)N1 (stereo not drawn) | – | > 50 | – | 1.07 | -6.9 | – |
| O=C1CCC(N2C(=O)c3cccc(NCc4cn(CCCCCn5c(=O)c(-c6ccc(Cl)cc6Cl)cc6cnc(NC7CC7)nc65)nn4)c3C2=O)C(=O)N1 (stereo not drawn) | – | > 50 | – | 0.809 | 19.2 | – |
| Cc1ncsc1-c1ccc([C@H](C)NC(=O)[C@@H]2C[C@@H](O)CN2C(=O)[C@@H](NC(=O)CCCCc2cn(CCOCCOCCOCCn3c(=O)c(-c4ccc(Cl)cc4Cl)cc4cnc(NC5CC5)nc43)nn2)C(C)(C)C)cc1 | 12 | > 50 | 0.88 | – | – | – |
| CNc1ncc2cc(-c3ccc(Cl)cc3Cl)c(=O)n(CCOCCn3cc(CNc4cccc5c4C(=O)N(C4CCC(=O)NC4=O)C5=O)nn3)c2n1 (stereo not drawn) | – | > 50 | – | 0.918 | 8.2 | – |
| Cc1ncsc1-c1ccc([C@H](C)NC(=O)[C@@H]2C[C@@H](O)CN2C(=O)[C@@H](NC(=O)CCc2cn(CCOCCOCCOCCn3c(=O)c(-c4ccc(Cl)cc4Cl)cc4cnc(NC5CC5)nc43)nn2)C(C)(C)C)cc1 | 7.1 | > 50 | 0.929 | – | – | – |
| Cc1ncsc1-c1ccc([C@H](C)NC(=O)[C@@H]2C[C@@H](O)CN2C(=O)[C@@H](NC(=O)CCCc2cn(CCOCCOCCOCCn3c(=O)c(-c4ccc(Cl)cc4Cl)cc4cnc(NC5CC5)nc43)nn2)C(C)(C)C)cc1 | 5.1 | > 50 | 0.949 | – | – | – |
| CNc1ncc2cc(-c3ccc(Cl)cc3Cl)c(=O)n(CCCCCn3cc(CNc4cccc5c4C(=O)N(C4CCC(=O)NC4=O)C5=O)nn3)c2n1 (stereo not drawn) | – | > 50 | – | 0.97 | -5.4 | – |
| CNc1ncc2cc(-c3ccc(Cl)cc3Cl)c(=O)n(CCCCn3cc(CNc4cccc5c4C(=O)N(C4CCC(=O)NC4=O)C5=O)nn3)c2n1 (stereo not drawn) | – | > 50 | – | 0.583 | 2.8 | – |
| O=C1CCC(N2C(=O)c3cccc(NCc4cn(CCOCCn5c(=O)c(-c6ccc(Cl)cc6Cl)cc6cnc(NC7CC7)nc65)nn4)c3C2=O)C(=O)N1 (stereo not drawn) | – | > 50 | – | 0.99 | 1 | – |
| O=C1CCC(N2C(=O)c3cccc(NCc4cn(CCCCn5c(=O)c(-c6ccc(Cl)cc6Cl)cc6cnc(NC7CC7)nc65)nn4)c3C2=O)C(=O)N1 (stereo not drawn) | – | 34.6 | – | 0.761 | 23.9 | – |
| CNc1ncc2cc(-c3ccc(Cl)cc3Cl)c(=O)n(CCOCCOCCOCCn3cc(CNc4cccc5c4C(=O)N(C4CCC(=O)NC4=O)C5=O)nn3)c2n1 (stereo not drawn) | – | > 50 | – | 0.988 | 1.2 | – |

Stronger by IC50 [2], values ahead:

| Activity [1] [%] | IC50 [2] [µM] | fold change (FC) [4] | fold change (FC) [5] | Activity [7] [%] | Compound | also measured |
| --- | --- | --- | --- | --- | --- | --- |
| 68.2 | 2.01 | 0.318 | – | – | Cc1ncsc1-c1ccc([C@H](C)NC(=O)[C@@H]2C[C@@H](O)CN2C(=O)[C@@H](NC(=O)CCCc2cn(CCCCCCCn3c(=O)c(-c4ccc(Cl)cc4Cl)cc4cnc(NC5CC5)nc43)nn2)C(C)(C)C)cc1 | Activity [3]: 41% |
| – | 25.8 | – | 0.653 | 41.7 | CNc1ncc2cc(-c3ccc(Cl)cc3Cl)c(=O)n(CCCCCCn3cc(CNc4cccc5c4C(=O)N(C4CCC(=O)NC4=O)C5=O)nn3)c2n1 (stereo not drawn) | Activity [6]: 15.3% |
| 45.5 | 16.3 | 0.545 | – | – | Cc1ncsc1-c1ccc([C@H](C)NC(=O)[C@@H]2C[C@@H](O)CN2C(=O)[C@@H](NC(=O)CCCc2cn(CCCCCn3c(=O)c(-c4ccc(Cl)cc4Cl)cc4cnc(NC5CC5)nc43)nn2)C(C)(C)C)cc1 | Activity [3]: 11.9% |
| – | 18.9 | – | 0.545 | 45.5 | CNc1ncc2cc(-c3ccc(Cl)cc3Cl)c(=O)n(CCCCCCCn3cc(CNc4cccc5c4C(=O)N(C4CCC(=O)NC4=O)C5=O)nn3)c2n1 (stereo not drawn) | Activity [6]: 23.1% |
| – | 7.35 | – | 0.44 | 56.1 | O=C1CCC(N2C(=O)c3cccc(NCc4cn(CCCCCCCn5c(=O)c(-c6ccc(Cl)cc6Cl)cc6cnc(NC7CC7)nc65)nn4)c3C2=O)C(=O)N1 (stereo not drawn) | Activity [6]: 18.3% |
| 57 | 5.47 | 0.43 | – | – | Cc1ncsc1-c1ccc([C@H](C)NC(=O)[C@@H]2C[C@@H](O)CN2C(=O)[C@@H](NC(=O)CCCCc2cn(CCCCCn3c(=O)c(-c4ccc(Cl)cc4Cl)cc4cnc(NC5CC5)nc43)nn2)C(C)(C)C)cc1 | Activity [3]: 27.4% |
| 44.3 | 16.9 | 0.557 | – | – | Cc1ncsc1-c1ccc([C@H](C)NC(=O)[C@@H]2C[C@@H](O)CN2C(=O)[C@@H](NC(=O)CCc2cn(CCOCCn3c(=O)c(-c4ccc(Cl)cc4Cl)cc4cnc(NC5CC5)nc43)nn2)C(C)(C)C)cc1 | Activity [3]: 15.7% |
| 67.1 | 3.78 | 0.329 | – | – | Cc1ncsc1-c1ccc([C@H](C)NC(=O)[C@@H]2C[C@@H](O)CN2C(=O)[C@@H](NC(=O)CCc2cn(CCCCCCn3c(=O)c(-c4ccc(Cl)cc4Cl)cc4cnc(NC5CC5)nc43)nn2)C(C)(C)C)cc1 | Activity [3]: 39.1% |
| – | 3.23 | – | – | – | CCn1c(=O)c(-c2ccc(-c3cncs3)cc2Cl)cc2cnc(Nc3ccc(N4CCN(C)CC4)cc3)nc21 | Activity [10]: 1.67%; inhibition [11]: Active; inhibition [12]: Active; viability at 2.5 µM [13]: 97.2%; Activity [14]: 0.058%; inhibition [15]: Active; inhibition [16]: Active; inhibition [17]: inactive; Activity [18]: 1.08%; inhibition [19]: Active |
